According to US20240207216A1, “COMPOSITIONS AND METHOD FOR TREATING GUT PERMEABILITY CAUSED BY HYDROGEN SULFIDE PRODUCING BACTERIA” (UNM RAINFOREST INNOVATIONS, priority 2022, published 2024):

Experiments:
[1] = test system: p-Akt/Akt; assay: DSV-induced Akt phosphorylation, Western blot in RAW cells; type: cell-based, murine; details: 200 μM, 3 h before DSV 4 h; DSV alone 3.18±0.30
Method: (§1) RAW 264.7 murine macrophage-like cells were grown in DMEM+10% FBS without any use of antibiotics or antimycotics. Cells were grown at 37° C. in a humidified incubator with 5% CO2. Prior to the day of infection, 8×10^5 cells were plated in a six-well plate and infected with DSV at multiplicity of infection 20 (MOI 20) for various times. For drug treatments, cells were incubated with LY294002 at 10 μM or 50 μM for one hour followed by DSV infection for 30 minutes or four hours. For TL2-C29 treatment, cells were incubated with the inhibitor at 200 μM for three hours followed by infection with DSV for four hours.
(§2) Cells were lysed in Lysis buffer containing protease and phosphatase inhibitors (Thermo Fisher Scientific, Inc., Waltham, MA) for 20 minutes at 4° C. Lysates were centrifuged at 12,000 rpm for five mins at 4° C. and supernatants were collected. Protein concentration in the supernatants was determined with Bradford reagent (Bio-Rad Laboratories, Inc., Hercules, CA). 50 μg of protein samples were run on SDS-PAGE (4-20% tris-glycine) and transferred to nitrocellulose membranes. Membranes were blocked in 5% milk in PBS-T (0.1% Tween 20) for 30 minutes followed by overnight incubation in primary antibodies in cold room. All antibodies except iNOS were purchased from Cell Signaling Technology (Danvers, MA): Actin (4970), p-AktS473(4060), p-Akt T308(13038), Akt (9272), p-P70S6K (9205), P70S6K (2708, TNF-α (19948). iNOS antibody was purchased from Abcam (Cambridge United Kingdom). Antibodies were diluted as recommended by the manufacturer. The following day, blots were washed with PBS-T and incubated with secondary antibodies (Cell Signaling Technology, Danvers, MA) at room temperature for one hour (dilution of 1:2000) and developed using enhanced chemiluminescence HRP signal (Thermo Fisher Scientific, Inc., Waltham, MA).
(§3) All graphs were generated using PRISM 9.4.1 GraphPad Software Inc., San Diego, CA). Data is plotted as Mean±SEM relative to control. Each experiment was conducted at least three independent times. […]

[2] = test system: TNF-α; assay: DSV-induced cellular TNF-α expression, Western blot in RAW cells; type: cell-based, murine; details: 200 μM, 3 h before DSV 4 h; DSV alone 24.67±2.51
Method: as §1, §2, §3

[3] = test system: secreted TNF-α; assay: DSV-induced secreted TNF-α, Western blot of RAW cell culture supernatant; type: cell-based, murine; details: 200 μM, 3 h before DSV 4 h; DSV alone 38.09±5.188
Method: FIG. 12. LY294002 inhibits DSV-induced activation of PI3K/Akt/TNF pathway. (A) RAW cells were treated with LY at either 10 μM or 50 μM for one hour before infection with DSV for four hours. Cells were lysed and protein lysate was prepared. Fifty μg of protein lysate was separated on SDS-PAGE and analyzed for p-Akt, Akt, TNF, iNOS, p-p70S6K, and total p70S6K by Western blotting. Actin was used as a loading control. (B) Quantification of p-Akt-Akt Western blot. (C) Quantification of p-P70/P70 Western blot. (D) Quantification of TNF-α/actin Western blot. (E) Post-infection, RAW cell culture supernatant was collected and proteins were precipitated using ethanol precipitation. Proteins were resuspended in PBS and 50 μg of proteins were loaded on SDS-PAGE and secreted TNF-α was detected using TNF-α antibody. Actin was used as a loading control.
as §1
Cells were lysed in Lysis buffer containing protease and phosphatase inhibitors (Thermo Fisher Scientific, Inc., Waltham, MA) for 20 minutes at 4° C. Lysates were centrifuged at 12,000 rpm for five mins at 4° C. and supernatants were collected. Protein concentration in the supernatants was determined with Bradford reagent (Bio-Rad Laboratories, Inc., Hercules, CA). 50 μg of protein samples were run on SDS-PAGE (4-20% tris-glycine) and transferred to nitrocellulose membranes. Membranes were blocked in 5% milk in PBS-T (0.1% Tween 20) for 30 minutes followed by overnight incubation in primary antibodies in cold room. […]

[4] = test system: iNOS; assay: DSV-induced iNOS expression, Western blot in RAW cells; type: cell-based, murine; details: 200 μM, 3 h before DSV 4 h; DSV alone 30.25±6.82
Method: as §1, §2, §3

[5] = test system: Snail; assay: DSV-induced Snail protein expression by Western blot; type: cell-based, Human; details: 100 nM, 2 h before DSV MOI 20 for 24 h; DSV alone 7.14±0.73
Method: FIG. 16. Rapamycin reduces DSV-induced Snail protein expression. Polarized Caco-2 cells were treated with 100 nM rapamycin for two hours, followed by DSV infection (MOI 20) for 24 hours. Cells were harvested and lysed. (A) Protein lysate was analyzed for Snail expression by Western blotting. (B) Quantitation of Snail expression from Western blot in (A). DSV: 7.14±0.73; DSV+Rapamycin: 3.10±0.74, **p<0.01.
Human colonic epithelial cells Caco-2 were purchased from the American Type Culture Collection (ATCC, Manassas, VA). Cells were grown in DMEM+20% FBS+penicillin and streptomycin (Thermo Fisher Scientific, Inc., Waltham, MA). Cells were grown at 37° C. in a humidified incubator with 5% CO2. To allow polarization and differentiation, cells were seeded at a density of 5×10^3 cells/well in 12-well 0.4 μm trans-well inserts for three weeks. Twenty-four hours before infection, growth medium was replaced with colorless medium (DMEM+20^0/o FBS) without antibiotics. […]
Cells were lysed in lysis buffer (Thermo Fisher Scientific, Inc., Waltham, MA; catalog #87787) containing protease and phosphatase inhibitors (Thermo Fisher Scientific, Inc., Waltham, MA; catalog #1861281) for 20 minutes at 4° C. with shaking. […] Protein concentration in the supernatants was determined with Bradford reagent (Bio-Rad Laboratories, Inc., Hercules, CA). […]

[6] = test system: PI3K/Akt pathway; assay: DSV-induced PI3K/Akt signaling with receptor antagonists; type: cell-based, murine; details: pretreatment of cells before DSV
Method: PI3k/Akt pathway is activated downstream of receptors such as RTKs and G-protein coupled receptors and also by TLRs activation which is often observed in the case of infections with various bacteria. Thus, cells were treated with different TLR antagonists to check for the involvement of TLR 2, TLR 4, or TLR 5 in DSV-mediated activation of PI3K/Akt pathway. […] DSV-induced phosphorylation of AKT was inhibited by C29 (DSV:3.18±0.30; DSV+C29: 1.58±0.29, p<0.05, FIG. 14, FIG. 15A). […] PI3K/Akt is classically activated by a vast number of stimuli through receptor tyrosine kinases (RTK). Thus, tryphostin AS1478, a common tyrosine kinase inhibitor, was used as an antagonist to EGFR signaling to test whether DSV-induced PI3k/Akt/TNF/iNOS pathway was dependent on RTK-mediated signaling.

[7] = test system: sulfate reducing bacteria; details: batch culture; cited from earlier work

## COc1cccc(C=Nc2cccc(C(=O)O)c2C)c1O [C29]
[1]
  p-Akt/Akt, normalized to control: 1.58±0.29
[2]
  cellular TNF-α protein, normalized to control: 8.57±2.81
[3]
  secreted TNF-α, normalized to control: 1.103±0.03408
[4]
  iNOS protein expression, normalized to control: 2.32±1.48

## CO[C@H]1C[C@@H]2CC[C@@H](C)[C@@](O)(O2)C(=O)C(=O)N2CCCC[C@H]2C(=O)O[C@H]([C@H](C)C[C@@H]2CC[C@@H](O)[C@H](OC)C2)CC(=O)[C@H](C)/C=C(\C)[C@@H](O)[C@@H](OC)C(=O)[C@H](C)C[C@H](C)/C=C/C=C/C=C/1C [Rapamycin, rapamycin]
[5]
  Snail expression from Western blot: 3.10±0.74

## c1ccc(Cn2c(Sc3ncnc4c3sc3ncccc34)nnc2-c2ccncc2)cc1 [TH1020]
[6]
  effect on DSV-induced PI3K/Akt signaling: Neither TLR4 antagonist TLR-IN-C34 nor TLR5 antagonist TH1020 had any discernable effect

## CC(=O)N[C@H]1[C@@H](OC(C)C)O[C@H](COC(C)=O)[C@@H](OC(C)=O)[C@@H]1OC(C)=O [TLR-IN-C34]
[6]
  effect on DSV-induced PI3K/Akt signaling: Neither TLR4 antagonist TLR-IN-C34 nor TLR5 antagonist TH1020 had any discernable effect

## [Mg+2].[O-][O-] [magnesium peroxide (MgO2), magnesium peroxide]
[7]
  number of sulfate reducing bacteria: inhibited
  sulfate reducing rate (SRR): inhibited
  sulfide concentration: inhibited

## COc1cc2ncnc(Nc3cccc(Cl)c3)c2cc1OC [tryphostin AS1478]
[6]
  effect on DSV-induced PI3K/Akt signaling: No inhibition
